Experiments:
Type in all cases: biochemical
[1] = target: T1, lymphoid tyrosine phosphatase (LYP) (Homo sapiens, UniProt Q9Y2R2); assay: LYP enzymatic activity assay, chelator fragments with and without zinc acetate; conditions: for Effect on LYP enzymatic activity alone: chelator alone, no added zinc; for Chelator concentration sufficient to restore LYP activity: two equiv; for Time dependence of LYP inhibition: incubation 0, 30, 60, 120 min
T1 sequence (Q9Y2R2 24-289 limits assumed): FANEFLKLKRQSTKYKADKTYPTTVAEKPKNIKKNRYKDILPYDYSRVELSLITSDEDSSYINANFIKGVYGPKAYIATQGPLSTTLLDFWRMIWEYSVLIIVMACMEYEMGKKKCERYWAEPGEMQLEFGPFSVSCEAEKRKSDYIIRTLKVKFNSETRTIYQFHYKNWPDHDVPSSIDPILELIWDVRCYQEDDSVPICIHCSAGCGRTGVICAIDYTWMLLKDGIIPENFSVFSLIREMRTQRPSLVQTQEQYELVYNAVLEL

[2] = system: PTP1B; assay: Inhibition of PTP1B by compound 1h; conditions: Figure 6
[3] = system: CD45; assay: Inhibition of CD45 by compound 1h; conditions: Figure 6
[4] = system: YopH
[5] = in the presence of 40 μM zinc acetate

Compound: c1ccc(CNCc2ccccn2)nc1 [Compound 3g, di-(2-picolyl)-amine]
- Effect on LYP enzymatic activity alone [1]: little effect
- Rescue of LYP from zinc-mediated inhibition [1, 5]: capable of rescuing the enzyme from zinc-mediated inhibition
- Chelator concentration sufficient to restore LYP activity [1, 5]: 80 µM

Compound: O=C1C=C(O)C(=O)c2ccccc21 [Compound 5g, 2-hydroxy-1,4-naphthoquinone]
- Inhibition of LYP in the presence of zinc ([1]; 5 μM zinc acetate, follow-up studies): consistent concentration-dependent inhibition
- Inhibition of LYP at the initial time point ([1]; absence of zinc, 0 min incubation): essentially no inhibition
- Combined effect with zinc on LYP inhibition ([1]; in the presence of zinc (Figure S2)): additive effect
- Time dependence of LYP inhibition [1]: time- dependent inhibition

Compound: CC(=O)[O-].CC(=O)[O-].[Zn+2] [zinc acetate, reference compound]
- Inhibition of LYP ([1]; 100 μM zinc(II) acetate, standard assay conditions): complete inhibition
- LYP activity, % of the control ([1]; at 5 μM zinc acetate): 80%
- LYP activity, % of the control [1, 5]: 20%

Compound: O=C1C=Cc2ccccc2C1=O [1,2-naphthoquinone, reference compound]
- Time dependence of LYP inhibition [1]: time-dependent manner

Compound: Oc1ccc2ccccc2c1O [Compound 1h, 1,2-dihydroxynaphthalene]
- Time dependence of LYP inhibition [1]: time-dependent inhibitor
- Selectivity for LYP over PTP1B [2]: modest selectivity
- Selectivity for LYP over CD45 [3]: modest selectivity
- Selectivity for LYP over YopH [4]: modest selectivity

Compound: O=C(O)c1cccc(C(=O)O)n1 [Compound 8a, 2,6-pyridine dicarboxylic acid]
- Effect on LYP enzymatic activity alone [1]: little effect
- Chelator equivalents (relative to zinc) required to restore LYP activity [1, 5]: slightly more than two equiv
- Rescue of LYP from zinc-mediated inhibition [1, 5]: capable of rescuing the enzyme from zinc-mediated inhibition

Compound: Oc1ccc(Cl)c2cccnc12 [Compound 12b, 5-chloro-8-quinolol]
- Effect on LYP enzymatic activity alone [1]: little effect
- Rescue of LYP from zinc-mediated inhibition [1, 5]: capable of rescuing the enzyme from zinc-mediated inhibition
- Chelator concentration sufficient to restore LYP activity [1, 5]: 80 µM

— PMC4497560 (Bioorganic & medicinal chemistry letters, 2014)
